Results as given in the RepoRT retention time repository (doi:10.1021/es4044374).

Experiment: RP, Waters XBridge C18, 50 × 2.1 mm, 3.5 µm, 30 °C, 0.2 mL/min, estimated dead time 0.55 min; A: water + 0.1% formic acid, pH 3; B: methanol + 0.1% formic acid, pH 3; gradient (min/%B) 0/10 4/50 17/95 25/95 25.1/10 30/10
Conditions: stereoisomer not certain

LC retention time	SMILES
4.4 min	c1ccc2n[nH]nc2c1 [1H-Benzotriazole]
1.7 min	O=c1ccn(C2OC(CO)C(O)C2(F)F)c(=O)[nH]1 (stereo not given) [2',2'-Difluoro-2'-deoxyuridine]
5.2 min	CC(=O)OC1C(C)OC(n2cc(F)c(N)nc2=O)C1OC(C)=O (stereo not given) [2',3'-di-O-acetyl-5'-deoxy-5-fluorocytidine]
4 min	NC(=O)c1c(Cl)cccc1Cl [2,6-Dichlorobenzamide]
1.2 min	O=S(=O)(O)c1ccc2ccc(S(=O)(=O)O)cc2c1 [2,7-Naphthalenedisulfonic acid]
2.7 min	Nc1nc2ccccc2[nH]1 [2-Aminobenzimidazole]
4.5 min	COC(=O)c1ccccc1S(N)(=O)=O [2-Aminosulfonyl-benzoic acid methyl ester]
1.7 min	COc1nc(C)nc(N)n1 [2-Methyl-4-amino-6-methoxy-s-triazine]
5.2 min	O=S(=O)(O)c1ccc2ccccc2c1 [2-Naphthalenesulfonic acid]
7.3 min	O=C(O)c1cc(Br)c(O)c(Br)c1 [3,5-Dibromo-4-hydroxybenzoic acid]
11.5 min	O=C(O)c1cccc(Oc2ccccc2)c1 [3-Phenoxybenzoic acid]
9.8 min	OCc1cccc(Oc2ccccc2)c1 [3-Phenoxybenzylalcohol]
15.3 min	CCCCCCCCn1sc(Cl)c(Cl)c1=O [4,5-Dichloro-2-n-octyl-3(2H)-isothiazolone (DCOIT)]
3.7 min	CC(=O)Nc1c(C)n(C)n(-c2ccccc2)c1=O [4-Acetamidoantipyrine]
2.6 min	Cc1c(N)c(=O)n(-c2ccccc2)n1C [4-Aminoantipyrine]
3.7 min	Cc1c(NC=O)c(=O)n(-c2ccccc2)n1C [4-Formylaminoantipyrine]
5.2 min	CC(C)c1ccc(N)cc1 [4-Isopropylaniline]
8.9 min	Oc1ccc(C(F)(F)F)cc1 [4-Trifluoromethylphenol]
1 min	O=c1[nH]cc(F)c(=O)[nH]1 [5-Fluorouracil]
5.8 min	Cc1ccc2n[nH]nc2c1 [5-Methyl-1H-benzotriazole]
13.6 min	O=C(O)C=C(F)C(F)(F)C(F)(F)C(F)(F)C(F)(F)C(F)(F)F [6:2 fluorotelomer unsaturated carboxylic acid]
16.1 min	O=C(O)C=C(F)C(F)(F)C(F)(F)C(F)(F)C(F)(F)C(F)(F)C(F)(F)C(F)(F)F [8:2 fluorotelomer unsaturated carboxylic acid]
6.1 min	NC(=O)N1c2ccccc2C(O)C(O)c2ccccc21 (stereo not drawn) [10,11-trans-Dihydroxy-10,11-dihydrocarbamazepine]

LC retention time	SMILES
1 min	CC(=O)NCCCS(=O)(=O)O [Acamprosate]
1.5 min	CC1=CC(=O)NS(=O)(=O)O1 [Acesulfame]
7.7 min	CCOCN(C(=O)CS(=O)(=O)O)c1c(C)cccc1CC [Acetochlor ESA]
7.5 min	CCOCN(C(=O)C(=O)O)c1c(C)cccc1CC [Acetochlor OXA]
7.7 min	CCc1cccc(CC)c1N(COC)C(=O)CS(=O)(=O)O [Alachlor ESA]
7.4 min	CCc1cccc(CC)c1N(COC)C(=O)C(=O)O [Alachlor OXA]
2 min	CC(C)(C)NCC(O)c1ccc(O)c(CO)c1 (stereo not given) [Albuterol]
2.6 min	Cc1c(N(C)C)c(=O)n(-c2ccccc2)n1C [Aminopyrine]
3.8 min	CCN1CCCC1CNC(=O)c1cc(S(=O)(=O)CC)c(N)cc1OC (stereo not given) [Amisulpride]
8.6 min	CN(C)CCC=C1c2ccccc2CCc2ccccc21 [Amitriptyline]
4.6 min	Cc1cc(=O)n(-c2ccccc2)n1C [Antipyrine]
4.8 min	COC(=O)C(Cc1ccccc1)NC(=O)C(N)CC(=O)O (stereo not given) [Aspartame]
3.8 min	CC(C)NCC(O)COc1ccc(CC(=O)O)cc1 (stereo not given) [Atenolol acid]
1 min	NCC(O)COc1ccc(CC(N)=O)cc1 (stereo not given) [Atenolol-desisopropyl]
2 min	CC(C)NCC(O)COc1ccc(CC(N)=O)cc1 (stereo not given) [Atenolol]
8 min	CNCCC(Oc1ccccc1C)c1ccccc1 (stereo not given) [Atomoxetine]
12.4 min	CC(C)c1c(C(=O)Nc2ccccc2)c(-c2ccccc2)c(-c2ccc(F)cc2)n1CCC(O)CC(O)CC(=O)O (stereo not given) [Atorvastatin]
1.4 min	CC(C)Nc1nc(N)[nH]c(=O)n1 [Atrazine-desethyl-2-hydroxy]
5.6 min	CC(C)Nc1nc(N)nc(Cl)n1 [Atrazine-desethyl]
4.3 min	CCNc1nc(N)nc(Cl)n1 [Atrazine-desisopropyl]
5.9 min	CCC1OC(=O)C(C)C(OC2CC(C)(OC)C(O)C(C)O2)C(C)C(OC2OC(C)CC(N(C)C)C2O)C(C)(O)CC(C)CN(C)C(C)C(O)C1(C)O (stereo not given) [Azithromycin]
8.8 min	COC=C(C(=O)O)c1ccccc1Oc1cc(Oc2ccccc2C#N)ncn1 [Azoxystrobin (free acid)]
5.1 min	O=c1[nH]sc2ccccc12 [Benzisothiazolone (BIT)]

SMILES	LC retention time
FC(F)(F)c1cccc(N2CCNCC2)c1 [1-(3-(Trifluoromethyl)phenyl)piperazine]	5.9 min
Clc1cccc(N2CCNCC2)c1 [1-(3-Chlorophenyl)piperazine]	5.2 min
c1ccc(CN2CCNCC2)cc1 [1-Benzylpiperazine]	1.2 min
O=C(O)COc1ccc(Cl)cc1Cl [2,4-D]	9.1 min
CCCCCCCCn1sccc1=O [2-Octyl-3(2H)-isothiazolone]	11.6 min
O=c1[nH]c(Cl)c(Cl)cc1Cl [3,5,6-Trichloro-2-pyridinol]	9.7 min
Oc1ccc(Cl)cc1 [4-Chlorophenol]	7.3 min
Cn1sc(Cl)cc1=O [5-Chloro-2-methyl-4-isothiazolin-3-one (CMI)]	3.7 min
CC(=NC#N)N(C)Cc1ccc(Cl)nc1 [Acetamiprid]	5.3 min
CCOCN(C(=O)CCl)c1c(C)cccc1CC [Acetochlor]	11.7 min
CCc1cccc(CC)c1N(COC)C(=O)CCl [Alachlor]	11.7 min
Cc1ccc(N=CN(C)C=Nc2ccc(C)cc2C)c(C)c1 [Amitraz]	15.4 min
CC(N)Cc1ccccc1 (stereo not given) [Amphetamine]	3.5 min
COC(=O)NS(=O)(=O)c1ccc(N)cc1 [Asulam]	2.4 min
CCNc1nc(NC(C)C)nc(OC)n1 [Atraton]	5.7 min
CCNc1nc(NC(C)C)[nH]c(=O)n1 [Atrazine-2-hydroxy]	4.4 min
CCNc1nc(Cl)nc(NC(C)C)n1 [Atrazine]	8.3 min
COC=C(C(=O)OC)c1ccccc1Oc1cc(Oc2ccccc2C#N)ncn1 [Azoxystrobin]	9.9 min
CC(C)N1C(=O)c2ccccc2NS1(=O)=O [Bentazone]	7.5 min
